Assays:
Settings in all cases: Compound concentration 1000.0 nM
[1] = molecular target: T1, Serine/threonine-protein kinase BRSK1 (Homo sapiens) (UniProt Q8TDC3)
T1 sequence (whole entry): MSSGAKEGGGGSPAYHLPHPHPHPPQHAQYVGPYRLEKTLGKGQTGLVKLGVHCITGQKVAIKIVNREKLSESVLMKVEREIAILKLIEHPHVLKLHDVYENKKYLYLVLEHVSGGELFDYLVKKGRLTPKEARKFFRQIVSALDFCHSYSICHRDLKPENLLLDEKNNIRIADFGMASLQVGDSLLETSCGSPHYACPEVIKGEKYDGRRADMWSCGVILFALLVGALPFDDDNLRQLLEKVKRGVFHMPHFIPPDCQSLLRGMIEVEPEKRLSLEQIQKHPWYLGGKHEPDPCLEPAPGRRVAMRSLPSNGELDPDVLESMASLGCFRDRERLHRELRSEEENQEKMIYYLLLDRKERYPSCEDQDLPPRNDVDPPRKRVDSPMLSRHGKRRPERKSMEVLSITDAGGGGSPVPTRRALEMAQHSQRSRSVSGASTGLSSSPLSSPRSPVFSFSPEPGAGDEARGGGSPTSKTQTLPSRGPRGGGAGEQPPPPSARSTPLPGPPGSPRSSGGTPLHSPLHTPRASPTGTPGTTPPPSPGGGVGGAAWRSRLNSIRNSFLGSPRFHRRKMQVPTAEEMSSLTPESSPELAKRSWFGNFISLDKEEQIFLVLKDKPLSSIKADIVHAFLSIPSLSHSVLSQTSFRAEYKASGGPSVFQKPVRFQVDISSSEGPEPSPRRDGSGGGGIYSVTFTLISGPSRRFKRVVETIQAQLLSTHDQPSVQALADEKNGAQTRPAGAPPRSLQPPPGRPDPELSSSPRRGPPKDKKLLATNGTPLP

[2] = molecular target: Serine/threonine-protein kinase OSR1 (Homo sapiens) (UniProt O95747)
Serine/threonine-protein kinase OSR1 (Homo sapiens), sequence (O95747 2-527 limits assumed): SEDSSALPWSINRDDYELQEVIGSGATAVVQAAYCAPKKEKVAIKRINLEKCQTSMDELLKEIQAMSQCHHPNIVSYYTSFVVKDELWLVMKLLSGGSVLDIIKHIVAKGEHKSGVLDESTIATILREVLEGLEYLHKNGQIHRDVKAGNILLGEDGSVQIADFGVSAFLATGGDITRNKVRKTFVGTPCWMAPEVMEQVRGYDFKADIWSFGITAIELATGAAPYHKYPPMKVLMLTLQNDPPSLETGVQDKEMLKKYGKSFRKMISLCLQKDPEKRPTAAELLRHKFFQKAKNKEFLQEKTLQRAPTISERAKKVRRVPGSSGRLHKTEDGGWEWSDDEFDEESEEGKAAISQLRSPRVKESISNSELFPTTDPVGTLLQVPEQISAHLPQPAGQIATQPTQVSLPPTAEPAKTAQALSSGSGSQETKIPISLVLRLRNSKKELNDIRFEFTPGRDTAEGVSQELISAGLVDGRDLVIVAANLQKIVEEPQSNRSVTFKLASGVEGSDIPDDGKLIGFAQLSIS

[3] = molecular target: 1-phosphatidylinositol 3-phosphate 5-kinase (Homo sapiens) (UniProt Q9Y2I7)
1-phosphatidylinositol 3-phosphate 5-kinase (Homo sapiens), sequence (Q9Y2I7 whole entry): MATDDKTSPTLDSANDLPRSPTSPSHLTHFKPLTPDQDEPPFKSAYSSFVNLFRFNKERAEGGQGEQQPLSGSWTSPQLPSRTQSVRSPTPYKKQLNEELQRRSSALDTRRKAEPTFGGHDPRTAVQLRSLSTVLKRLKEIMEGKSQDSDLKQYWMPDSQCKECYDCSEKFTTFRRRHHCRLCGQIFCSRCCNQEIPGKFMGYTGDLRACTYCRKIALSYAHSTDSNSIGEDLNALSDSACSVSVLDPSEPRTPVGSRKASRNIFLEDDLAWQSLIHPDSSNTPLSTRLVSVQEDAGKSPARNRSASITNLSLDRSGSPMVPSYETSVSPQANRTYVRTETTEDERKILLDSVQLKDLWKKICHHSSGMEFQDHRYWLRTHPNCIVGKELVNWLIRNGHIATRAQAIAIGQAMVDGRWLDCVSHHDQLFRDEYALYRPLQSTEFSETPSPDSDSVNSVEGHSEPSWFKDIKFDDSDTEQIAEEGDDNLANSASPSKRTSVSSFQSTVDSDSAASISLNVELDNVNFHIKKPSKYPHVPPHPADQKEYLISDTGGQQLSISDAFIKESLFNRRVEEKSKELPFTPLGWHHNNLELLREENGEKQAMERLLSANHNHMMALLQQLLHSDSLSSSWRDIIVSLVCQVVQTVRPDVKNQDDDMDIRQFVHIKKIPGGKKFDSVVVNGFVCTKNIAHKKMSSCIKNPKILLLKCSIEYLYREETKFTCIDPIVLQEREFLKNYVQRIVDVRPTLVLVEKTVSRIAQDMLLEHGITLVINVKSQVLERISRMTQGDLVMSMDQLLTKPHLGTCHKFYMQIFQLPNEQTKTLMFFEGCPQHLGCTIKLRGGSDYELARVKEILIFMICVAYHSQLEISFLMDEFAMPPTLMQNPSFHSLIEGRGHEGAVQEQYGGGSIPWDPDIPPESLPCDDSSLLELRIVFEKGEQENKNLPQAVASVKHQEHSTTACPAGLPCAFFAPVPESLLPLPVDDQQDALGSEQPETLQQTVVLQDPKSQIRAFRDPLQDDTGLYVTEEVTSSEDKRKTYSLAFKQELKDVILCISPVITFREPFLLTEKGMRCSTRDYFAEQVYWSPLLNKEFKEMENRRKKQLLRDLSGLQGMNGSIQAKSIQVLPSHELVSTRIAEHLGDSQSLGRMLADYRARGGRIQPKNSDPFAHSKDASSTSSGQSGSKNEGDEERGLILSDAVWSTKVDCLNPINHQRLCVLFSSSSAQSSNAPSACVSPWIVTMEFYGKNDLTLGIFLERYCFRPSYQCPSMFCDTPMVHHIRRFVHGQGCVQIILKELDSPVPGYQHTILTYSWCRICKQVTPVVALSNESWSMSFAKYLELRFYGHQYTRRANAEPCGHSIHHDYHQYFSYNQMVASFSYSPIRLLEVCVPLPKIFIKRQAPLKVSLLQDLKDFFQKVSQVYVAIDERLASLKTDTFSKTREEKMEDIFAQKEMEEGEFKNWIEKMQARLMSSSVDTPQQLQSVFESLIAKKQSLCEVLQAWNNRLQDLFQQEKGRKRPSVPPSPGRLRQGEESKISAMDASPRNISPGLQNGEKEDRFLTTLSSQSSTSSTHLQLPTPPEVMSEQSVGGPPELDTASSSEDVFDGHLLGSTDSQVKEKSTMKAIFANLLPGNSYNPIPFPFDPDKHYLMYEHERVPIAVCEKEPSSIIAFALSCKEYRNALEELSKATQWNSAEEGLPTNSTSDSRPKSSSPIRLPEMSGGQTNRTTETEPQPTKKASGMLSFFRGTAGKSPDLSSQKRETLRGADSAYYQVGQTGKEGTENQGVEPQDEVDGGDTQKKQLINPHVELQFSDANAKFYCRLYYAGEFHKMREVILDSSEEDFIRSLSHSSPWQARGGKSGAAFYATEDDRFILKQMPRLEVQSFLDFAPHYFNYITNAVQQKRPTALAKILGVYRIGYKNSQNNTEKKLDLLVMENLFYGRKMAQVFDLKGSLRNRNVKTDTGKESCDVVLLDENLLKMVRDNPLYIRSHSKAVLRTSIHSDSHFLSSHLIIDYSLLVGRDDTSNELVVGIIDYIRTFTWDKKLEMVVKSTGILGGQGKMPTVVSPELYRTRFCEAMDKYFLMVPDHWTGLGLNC

[4] = molecular target: T2, cGMP-dependent protein kinase 1 (Homo sapiens) (UniProt Q13976)
T2 sequence (whole entry): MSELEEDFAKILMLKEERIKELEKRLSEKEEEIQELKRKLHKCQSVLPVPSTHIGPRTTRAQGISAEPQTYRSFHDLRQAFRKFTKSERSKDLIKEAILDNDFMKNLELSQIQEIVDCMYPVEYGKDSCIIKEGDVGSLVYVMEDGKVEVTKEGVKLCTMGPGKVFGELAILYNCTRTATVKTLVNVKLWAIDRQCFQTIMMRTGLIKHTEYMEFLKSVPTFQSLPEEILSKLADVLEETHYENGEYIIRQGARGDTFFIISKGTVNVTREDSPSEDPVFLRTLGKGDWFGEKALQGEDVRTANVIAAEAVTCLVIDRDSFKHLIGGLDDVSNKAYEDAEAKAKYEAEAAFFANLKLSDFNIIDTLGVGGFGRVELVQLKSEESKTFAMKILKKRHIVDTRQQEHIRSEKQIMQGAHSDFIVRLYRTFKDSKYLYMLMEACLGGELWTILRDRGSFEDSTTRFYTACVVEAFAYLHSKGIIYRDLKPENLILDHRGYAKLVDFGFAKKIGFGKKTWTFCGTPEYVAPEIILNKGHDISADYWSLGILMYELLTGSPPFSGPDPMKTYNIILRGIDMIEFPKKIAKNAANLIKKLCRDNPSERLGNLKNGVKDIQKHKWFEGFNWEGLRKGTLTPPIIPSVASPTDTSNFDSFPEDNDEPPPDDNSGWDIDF

[5] = molecular target: T3, Serine/threonine-protein kinase ULK2 (Homo sapiens) (UniProt Q8IYT8)
T3 sequence (whole entry): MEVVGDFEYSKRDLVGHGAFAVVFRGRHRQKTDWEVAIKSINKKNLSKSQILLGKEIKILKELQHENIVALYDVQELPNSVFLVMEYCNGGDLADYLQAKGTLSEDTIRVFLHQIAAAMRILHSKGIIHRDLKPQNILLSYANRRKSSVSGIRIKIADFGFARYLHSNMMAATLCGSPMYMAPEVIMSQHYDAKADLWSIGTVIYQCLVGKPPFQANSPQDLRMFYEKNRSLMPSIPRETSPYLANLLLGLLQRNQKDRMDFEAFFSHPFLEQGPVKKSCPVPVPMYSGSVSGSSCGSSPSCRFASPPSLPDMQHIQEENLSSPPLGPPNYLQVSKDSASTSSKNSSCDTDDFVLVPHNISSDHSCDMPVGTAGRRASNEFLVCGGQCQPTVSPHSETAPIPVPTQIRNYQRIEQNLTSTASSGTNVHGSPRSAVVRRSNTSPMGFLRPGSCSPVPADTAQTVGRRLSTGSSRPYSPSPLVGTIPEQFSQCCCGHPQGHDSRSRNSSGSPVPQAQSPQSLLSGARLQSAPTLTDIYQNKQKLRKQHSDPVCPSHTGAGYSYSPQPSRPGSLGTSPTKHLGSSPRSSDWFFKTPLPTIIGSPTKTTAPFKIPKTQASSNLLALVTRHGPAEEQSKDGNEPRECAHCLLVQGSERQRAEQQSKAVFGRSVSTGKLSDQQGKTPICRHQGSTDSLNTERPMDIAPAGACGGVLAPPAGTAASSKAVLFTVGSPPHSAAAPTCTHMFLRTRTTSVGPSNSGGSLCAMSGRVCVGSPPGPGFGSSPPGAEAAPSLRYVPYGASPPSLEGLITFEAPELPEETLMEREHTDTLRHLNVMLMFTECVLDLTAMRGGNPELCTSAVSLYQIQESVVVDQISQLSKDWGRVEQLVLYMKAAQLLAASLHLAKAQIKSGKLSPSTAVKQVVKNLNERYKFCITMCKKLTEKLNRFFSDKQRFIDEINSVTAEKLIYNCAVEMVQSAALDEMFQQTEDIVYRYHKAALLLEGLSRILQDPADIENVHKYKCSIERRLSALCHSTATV

Measured: residual activity

CC1=C(C#N)C(c2ccc3c(c2)c(NC(=O)c2ccccc2C)nn3C)C(C#N)=C(C)N1 [BAY-974]
inactive: [1] 100% | [2] 83% | [3] 87% | [4] 100% | [5] 72%

CCc1ccccc1C(=O)Nc1n[nH]c2c(C)c(F)c(C3C(C#N)=C(C)N(C)C(C)=C3C#N)cc12 [BAY-3827]
inactive: [1] 55% | [2] 100% | [3] 100% | [4] 100% | [5] 100%
